Results reported in ChEMBL document CHEMBL4483862, “Open-source discovery of chemical leads for next-generation chemoprotective antimalarials” (2018).

Test system: Plasmodium berghei
Experiment: Luciferase/luciferin-expressing antifolate-resistant parasites were used to infect a culture of HepG2 cells that were pre-incubated with compounds. Infected hepatocytes emit light due to the luciferase reaction. Assay results are presented as the percent inhibition of light emission compared to control. […]
Type: functional
Conditions: sporozoite; for IC90: read-out: LUCIFERASE INFECTION ASSAY - IC90
[1] = PBLUC_HILL_SLOPE 14.7, PBLUC_R_SQUARED 0.767, read-out: LUCIFERASE INFECTION ASSAY - IC50

Cc1ccc(NC(=S)N/N=C2\C(=O)Nc3ccc([N+](=O)[O-])cc32)cc1
IC50 (PBLUC_HILL_SLOPE 14.8, PBLUC_R_SQUARED 0.511, read-out: LUCIFERASE INFECTION ASSAY - IC50): 8.89 µM
IC90: > 10 µM

C/N=c1\scc(-c2ccccc2Br)n1/N=C/c1ccc[nH]1
IC50 (PBLUC_HILL_SLOPE 15, PBLUC_R_SQUARED 0.188, read-out: LUCIFERASE INFECTION ASSAY - IC50): 9.68 µM
IC90: > 10 µM

FC(F)(F)Oc1cccc(-c2cnc3cnc(-c4cccnc4)cn23)c1
IC50 (PBLUC_HILL_SLOPE 14.8, PBLUC_R_SQUARED 0.205, read-out: LUCIFERASE INFECTION ASSAY - IC50): 8.62 µM
IC90: > 9.26 µM

NC(Cc1ccc(F)cc1)c1csc(Nc2ccc(-c3ccccc3)nn2)n1 (stereo unspecified)
IC50 (PBLUC_HILL_SLOPE 14.8, PBLUC_R_SQUARED 0.059, read-out: LUCIFERASE INFECTION ASSAY - IC50): 8.32 µM
IC90: > 8.43 µM

CC(C)Oc1cccc(-c2cn3c(-c4ccc(N(C)C)cc4)cnc3cn2)c1
IC50 (PBLUC_HILL_SLOPE 15, PBLUC_R_SQUARED 0.312, read-out: LUCIFERASE INFECTION ASSAY - IC50): > 8.86 µM
IC90: > 8.86 µM

Cc1cc(C(=O)Oc2ccccc2C(N)=O)c(C)n1Cc1ccco1
IC50 (PBLUC_HILL_SLOPE 14.9, PBLUC_R_SQUARED 0.682, read-out: LUCIFERASE INFECTION ASSAY - IC50): 1.09 µM
IC90: 1.27 µM

c1ccc(Oc2ccccc2-c2cnn3c(NCc4ccccn4)ccnc23)cc1
IC50 (PBLUC_HILL_SLOPE 14.9, PBLUC_R_SQUARED 0.143, read-out: LUCIFERASE INFECTION ASSAY - IC50): 8.25 µM
IC90: > 8.39 µM

CCCn1c(NC(=O)c2cc(-c3cccs3)nc3ccccc23)nc2ccccc21
IC50 [1]: 9.26 µM
IC90: > 10 µM

O=C(NCc1ccc(-c2cccs2)s1)c1ccc([N+](=O)[O-])s1
IC50 (PBLUC_HILL_SLOPE 15, PBLUC_R_SQUARED 0.438, read-out: LUCIFERASE INFECTION ASSAY - IC50): 8.73 µM
IC90: > 9.42 µM

O=C(c1ccco1)N1CCc2nc(NCc3cccc(Cl)c3)ncc2C1
IC50 (PBLUC_HILL_SLOPE 14.7, PBLUC_R_SQUARED 0.24, read-out: LUCIFERASE INFECTION ASSAY - IC50): 7.63 µM
IC90: 8.86 µM

O=C(NNc1ccc(F)cc1)c1cccc(S(=O)(=O)N2CCc3ccccc3C2)c1
IC50 (PBLUC_HILL_SLOPE 14.9, PBLUC_R_SQUARED 0.744, read-out: LUCIFERASE INFECTION ASSAY - IC50): 9.22 µM
IC90: > 10 µM

N#Cc1c(F)ccc(NC(=O)Nc2ccc(Cl)cc2)c1F
IC50 (PBLUC_HILL_SLOPE 14.7, PBLUC_R_SQUARED 0.232, read-out: LUCIFERASE INFECTION ASSAY - IC50): 10.6 µM
IC90: > 10.7 µM

Cc1cccc(/C=C(/C(=O)NCc2ccc(NC(=O)C(C)C)cc2)c2cccs2)c1
IC50 (PBLUC_HILL_SLOPE 14.7, PBLUC_R_SQUARED 0.598, read-out: LUCIFERASE INFECTION ASSAY - IC50): 3.95 µM
IC90: 4.58 µM

COc1ccc(OCC(O)CNCC23CC4CC(CC(C4)C2)C3)c(C(C)(C)C)c1 (stereo unspecified)
IC50 (PBLUC_HILL_SLOPE 14.7, PBLUC_R_SQUARED 0.42, read-out: LUCIFERASE INFECTION ASSAY - IC50): 8.48 µM
IC90: 9.84 µM

Oc1cccc(-c2cnc3cnc(-c4cccnc4)cn23)c1
IC50 (PBLUC_HILL_SLOPE 14.9, PBLUC_R_SQUARED 0.072, read-out: LUCIFERASE INFECTION ASSAY - IC50): 10.8 µM
IC90: > 11.4 µM

O=C(c1cccc(F)c1)c1cnc(Nc2cccc(Br)c2)[nH]1
IC50 (PBLUC_HILL_SLOPE 15, PBLUC_R_SQUARED 0.325, read-out: LUCIFERASE INFECTION ASSAY - IC50): 8.58 µM
IC90: > 9.16 µM

CCOc1cccc(-c2cn3c(-c4ccc(C(=O)N(C)C)cc4)cnc3cn2)c1
IC50 (PBLUC_HILL_SLOPE 14.8, PBLUC_R_SQUARED 0.204, read-out: LUCIFERASE INFECTION ASSAY - IC50): 2.92 µM
IC90: 3.39 µM

Cc1onc(-c2ccccc2)c1C(=O)ON=C1C2CC3CC(C2)CC1C3
IC50 (PBLUC_HILL_SLOPE 14.9, PBLUC_R_SQUARED 0.433, read-out: LUCIFERASE INFECTION ASSAY - IC50): 8.78 µM
IC90: > 9.42 µM

CCCn1c(NC(=O)c2cccnc2SC)nc2ccccc21
IC50 (PBLUC_HILL_SLOPE 14.8, PBLUC_R_SQUARED 0.146, read-out: LUCIFERASE INFECTION ASSAY - IC50): 9.22 µM
IC90: > 10 µM

Cc1nn(-c2ccccc2C(F)(F)F)c2nc(-c3ccccc3)cc(C(=O)N3CCCC(C)C3)c12 (stereo unspecified)
IC50 (PBLUC_HILL_SLOPE 14.7, PBLUC_R_SQUARED 0.435, read-out: LUCIFERASE INFECTION ASSAY - IC50): 9.53 µM
IC90: > 10 µM

CC(OC(=O)c1cc2sc3ccccc3c2s1)C(=O)N1CCNC1=O (stereo unspecified)
IC50 (PBLUC_HILL_SLOPE 15.1, PBLUC_R_SQUARED 0.0385, read-out: LUCIFERASE INFECTION ASSAY - IC50): 8.57 µM
IC90: 9.91 µM

O=C(CSCc1nc2ccccc2[nH]1)Nc1nc(-c2ccc(NC(=O)c3ccccc3)cc2)cs1
IC50 (PBLUC_HILL_SLOPE 14.9, PBLUC_R_SQUARED 0.81, read-out: LUCIFERASE INFECTION ASSAY - IC50): 9.28 µM
IC90: > 10 µM

CC(=O)Nc1cccc(-c2cn3c(-c4ccc(C#N)cc4)cnc3cn2)c1
IC50 (PBLUC_HILL_SLOPE 15, PBLUC_R_SQUARED 0.251, read-out: LUCIFERASE INFECTION ASSAY - IC50): 8.2 µM
IC90: > 9.34 µM

CCCCn1c(N)c(N(CCC)C(=O)/C=C/c2cccc3cccnc23)c(=O)[nH]c1=O
IC50 (PBLUC_HILL_SLOPE 14.7, PBLUC_R_SQUARED 0.526, read-out: LUCIFERASE INFECTION ASSAY - IC50): 3.18 µM
IC90: 3.69 µM

Cc1cc2ncc(C(=O)Nc3nc4c(s3)CN(Cc3ccccc3)CC4)c(C)n2n1
IC50 (PBLUC_HILL_SLOPE 15, PBLUC_R_SQUARED 0.627, read-out: LUCIFERASE INFECTION ASSAY - IC50): 9.24 µM
IC90: > 10 µM

CC(C)COc1ccc(NC(=O)c2ccnn2C)cc1Cl
IC50 (PBLUC_HILL_SLOPE 14.7, PBLUC_R_SQUARED 0.488, read-out: LUCIFERASE INFECTION ASSAY - IC50): 9.12 µM
IC90: > 10 µM

COc1ccc(CCN2C(=O)N(C(C)C)C(=O)C23CCN(Cc2ccc(Cl)cc2)CC3)cc1
IC50 (PBLUC_HILL_SLOPE 14.8, PBLUC_R_SQUARED 0.317, read-out: LUCIFERASE INFECTION ASSAY - IC50): 6.11 µM
IC90: > 7.02 µM

Cn1c(N)c(C(=O)COC(=O)c2ccccc2-c2nc3ccccc3s2)c(=O)n(C)c1=O
IC50 [1]: 9.26 µM
IC90: > 10 µM

CN(C)c1cccc(-c2cnc3sc(NCc4ccccc4)nn23)c1
IC50 (PBLUC_HILL_SLOPE 15, PBLUC_R_SQUARED 0.389, read-out: LUCIFERASE INFECTION ASSAY - IC50): 3.08 µM
IC90: 3.57 µM

CC(=O)Nc1nc(C(=O)Nc2ccc3c(c2)OC(F)(F)O3)cs1
IC50 (PBLUC_HILL_SLOPE 15.0, 3.17, PBLUC_R_SQUARED 0.232, 0.795, read-out: LUCIFERASE INFECTION ASSAY - IC50): 7.96 µM
IC90: > 10 µM

CCn1c(NC(=O)CCc2ccc3c(c2)OCCO3)nc2ccccc21
IC50 (PBLUC_HILL_SLOPE 14.7, PBLUC_R_SQUARED 0.597, read-out: LUCIFERASE INFECTION ASSAY - IC50): 9.02 µM
IC90: > 10 µM

CNc1snc(C)c1C(=O)Nc1ccc2oc(C(C)C)nc2c1
IC50 (PBLUC_HILL_SLOPE 15, PBLUC_R_SQUARED 0.678, read-out: LUCIFERASE INFECTION ASSAY - IC50): 3.08 µM
IC90: 3.56 µM

CSc1ncc(Nc2nc(-c3ccccc3)c(-c3ccccc3)s2)cn1
IC50 (PBLUC_HILL_SLOPE 14.9, PBLUC_R_SQUARED 0.41, read-out: LUCIFERASE INFECTION ASSAY - IC50): 3.61 µM
IC90: 4.18 µM
